Where two headings read alike, the source gives them in different places.
Test system: MDD patients carrying the indicated biomarkers
Conditions: for HAMD-17 change, Effect / HAMD-28 change, Effect: + SSRI
Protocol: Folate levels are classified as either low (<=2.5 ng/ml) or normal; and homocysteine levels as either normal or elevated (>=[…]). The presence or absence of at least one […] allele for the MTHFR gene are entered as a dichotomous variable (present or absent). […] Using folate as an example predicator, the presence or absence of a low serum-folate level along with treatment assignment can be entered in a 2×2, factorial ANOVA, using depression improvement scores (baseline minus endpoint HAM-D-17 scores) as the dependant variable. […] Similar analyses (i.e. separate 2×2 ANOVA's) can be performed substituting the presence of low folate levels for the presence of other predictors as described herein. Similarly, the effect of other predictors can be indicated by the interaction term representing the potential modulating influence of those variables.
The efficacy effect is determined by measuring the mean change in the HAMD-17 score and HAMD-28 score by the end of Phase I and Phase II, as compared to the baseline.

[1] = A + B: BMI > 30 & LOW SAM/SAH RATIO, N = 13
[2] = A + C: BMI > 30 & HIGH 4-HNE, N = 12
[3] = A + D: BMI > 30 & MTHFR 677 CT/TT, N = 9
[4] = A + E + F: BMI > 30 & MTR 2756 AG/GG & MTRR 66 AG/GG, N = 4
[5] = A + E: BMI > 30 & MTR 2756 AG/GG, N = 5
[6] = B + C: LOW SAM/SAH RATIO & HIGH 4-HNE, N = 11
[7] = B + E + F: LOW SAM/SAH RATIO & MTR 2756 AG/GG & MTRR 66 AG/GG, N = 5
[8] = B + E: LOW SAM/SAH RATIO & MTR 2756 AG/GG, N = 6
[9] = B + F: LOW SAM/SAH RATIO & MTRR 66 AG/GG, N = 11
[10] = C + D: HIGH 4-HNE & MTHFR 677 CT/TT, N = 8
[11] = C + E + F: HIGH 4-HNE & MTR 2756 AG/GG & MTRR 66 AG/GG, N = 4
[12] = C + E: HIGH 4-HNE & MTR 2756 AG/GG, N = 9
[13] = C + F: HIGH 4-HNE & MTRR 66 AG/GG, N = 15
[14] = D + E: MTHFR 677 CT/TT & MTR 2756 AG/GG, N = 4
[15] = E + F: MTR 2756 AG/GG & MTRR 66 AG/GG, N = 8
[16] = MTHFR 677 CC and MTR 2756 AA, Phase I
[17] = MTHFR 677 CC and MTR 2756 AA, Phase II
[18] = MTHFR 677 CC and MTR 2756 AA, Pooled phases
[19] = MTHFR 677 CT or TT and MTR 2756 AG or GG, Phase I
[20] = MTHFR 677 CT or TT and MTR 2756 AG or GG, Phase II
[21] = MTHFR 677 CT or TT and MTR 2756 AG or GG, Pooled phases
[22] = MTR 2756 AA and MTRR 66 AA and BMI < 30 kg/m^2, Phase II
[23] = MTR 2756 AG or GG and MTRR 66 AG or GG and BMI >= 30 kg/m^2, Phase I
[24] = MTR 2756 AG or GG and MTRR 66 AG or GG and BMI >= 30 kg/m^2, Phase II
[25] = MTR 2756 AG or GG and MTRR 66 AG or GG and BMI >= 30 kg/m^2, Pooled phases

SMILES: CN1c2c(nc(N)[nH]c2=O)NC[C@@H]1CNc1ccc(C(=O)N[C@@H](CCC(=O)O)C(=O)O)cc1 [6(S)-5-MTHF, 6(S)-5-methyltetrahydrofolate]
- Pooled Effect Size HAMD-17 [1]: −7.302
- Pooled Effect Size HAMD-28 [1]: −7.572
- Pooled Effect Size HAMD-17 [2]: −5.420
- Pooled Effect Size HAMD-28 [2]: −5.996
- Pooled Effect Size HAMD-17 [3]: −8.090
- Pooled Effect Size HAMD-28 [3]: −9.884
- Pooled Effect Size HAMD-17 [4]: −10.972
- Pooled Effect Size HAMD-28 [4]: −15.347
- Pooled Effect Size HAMD-17 [5]: −11.714
- Pooled Effect Size HAMD-28 [5]: −14.433
- Pooled Effect Size HAMD-17 (A: BMI > 30, N = 21): −4.600
- Pooled Effect Size HAMD-28 (A: BMI > 30, N = 21): −4.660
- Pooled Effect Size HAMD-17 [6]: −9.898
- Pooled Effect Size HAMD-28 [6]: 9.500
- Pooled Effect Size HAMD-17 [7]: −7.640
- Pooled Effect Size HAMD-28 [7]: −11.620
- Pooled Effect Size HAMD-17 [8]: −5.583
- Pooled Effect Size HAMD-28 [8]: −11.683
- Pooled Effect Size HAMD-17 [9]: −5.879
- Pooled Effect Size HAMD-28 [9]: −6.879
- Pooled Effect Size HAMD-17 (B: LOW SAM/SAH RATIO, N = 18): −3.622
- Pooled Effect Size HAMD-28 (B: LOW SAM/SAH RATIO, N = 18): −4.572
- Pooled Effect Size HAMD-17 [10]: −9.446
- Pooled Effect Size HAMD-28 [10]: −9.865
- Pooled Effect Size HAMD-17 [11]: −7.942
- Pooled Effect Size HAMD-28 [11]: −10.241
- Pooled Effect Size HAMD-17 [12]: −8.072
- Pooled Effect Size HAMD-28 [12]: −9.508
- Pooled Effect Size HAMD-17 [13]: −4.850
- Pooled Effect Size HAMD-28 [13]: −6.582
- Pooled Effect Size HAMD-17 (C: HIGH 4-HNE, N = 21): −4.175
- Pooled Effect Size HAMD-28 (C: HIGH 4-HNE, N = 21): 4.554
- Pooled Effect Size HAMD-17 [14]: −18.710
- Pooled Effect Size HAMD-28 [14]: −23.290
- Pooled Effect Size HAMD-17 [15]: −6.976
- Pooled Effect Size HAMD-28 [15]: −9.348
- Pooled Effect Size HAMD-17 (E: MTR 2756 AG/GG, N = 11): −5.677
- Pooled Effect Size HAMD-28 (E: MTR 2756 AG/GG, N = 11): −8.243
- effect in carriers of both variants relative to the sum of the individual biomarker effects (HAMD-28 mean change, MTHFR T + MTR G): at least 2 fold
- HAMD-17 change, Effect [16]: −0.700
- HAMD-28 change, Effect [16]: −0.192
- HAMD-17 change, Effect [17]: −0.571
- HAMD-28 change, Effect [17]: 0.048
- HAMD-17 change, Effect [18]: 0.722
- HAMD-28 change, Effect [18]: 0.711
- HAMD-17 change, Effect [19]: −13.47
- HAMD-28 change, Effect [19]: −18.00
- HAMD-17 change, Effect [20]: −10.33
- HAMD-28 change, Effect [20]: −13.00
- HAMD-17 change, Effect [21]: −18.71
- HAMD-28 change, Effect [21]: −23.29
- HAMD-17 change, Effect [22]: −4.333
- HAMD-28 change, Effect [22]: −4.667
- HAMD-17 change, Effect [23]: −13.667
- HAMD-28 change, Effect [23]: −18.833
- HAMD-17 change, Effect [24]: −11.000
- HAMD-28 change, Effect [24]: −12.000
- HAMD-17 change, Effect [25]: −10.972
- HAMD-28 change, Effect [25]: −15.347
- Pooled Effect Size HAMD-17 (OVERALL, N = 73): −2.264
- Pooled Effect Size HAMD-28 (OVERALL, N = 73): −2.738
- Effect on change in HAMD-17 score (Phase I, 25 =< BMI < 30 kg/m^2): 2.600
- Effect on change in HAMD-28 score (Phase I, 25 =< BMI < 30 kg/m^2): 2.602
- Effect on change in HAMD-17 score (Phase I, BMI < 25): 1.576
- Effect on change in HAMD-28 score (Phase I, BMI < 25): 0.909
- Effect on change in HAMD-17 score (Phase I, BMI < 30 kg/m^2 and HNE-His < median): 3.771
